≈ marks a conversion by molar mass, not a printed value. Like-named read-outs stand apart in the source and are kept apart here.

One data set concerns the target T1, 1b (BK) NS5BΔ21 (Hepatitis C virus genotype 1b, UniProt P26663).
T1 construct: 100 nM 1b (BK) NS5BΔ21
Put plainly: HCV polymerase inhibition assay. In kind it is biochemical. As for the experimental part:
HCV polymerase reactions were carried out using a modified method of Howe et al., Antimicrobial Agents and Chemotherapy 2004 48(12): 4813-4821. Reactions contained a final concentration of, 0.5% DMSO, 100 nM 1b (BK) NS5BΔ21, 20 mM Tris-HCl pH 7.5, 5 mM MgCl2, 5 mM MnCl2, 3 mM DTT, 0.05% BSA, 0.2 U/μL RNasin, 10 μg/mL Poly(rC) template, GTP (at Km) and 0.05 μCi/μL ^33P-GTP in a total reaction volume of 50 μL. Compounds were tested in a three fold dilution series, for example starting from 50 μM. Reactions were initiated with the addition of GTP and terminated after […] with 50 μL ice cold 0.2 M EDTA. Terminated reactions were transferred to DEAE 96-well filter plates, unincorporated nucleotides washed from the filters and 50 μL scintillation fluid added prior to reading on a scintillation counter. The compound concentration that reduced ^33P-GTP incorporation by 50% (IC50) was calculated using non-linear regression.

The test system of data set [1] is genotype 1b (Con 1) subgenomic replicon cell line. Put plainly: HCV replicon assay, genotype 1b, Renilla luciferase reporter. In kind it is cell-based. The conditions noted are these: Hepatitis C virus; 72 hours incubation, Renilla luciferase activity. On the procedure: A genotype 1b (Con 1) subgenomic replicon cell line based on Blight et al., Science 2000 290: 1972-1974, modified to express a Renilla luciferase reporter gene was used to assess antiviral activity of test compounds. Cell cultures were maintained in a sub-confluent state in DMEM with glutamine, 10% heat-inactivated foetal bovine serum (FBS) and G418 (Geneticin®).
For assay, cells were seeded at a density of 7000 cells/well into 96 well tissue culture trays in culture media lacking G418. Compounds were tested in a three fold dilution series, for example starting from 50 uM. After 72 hours incubation at 37° C. and 5% CO2, Renilla luciferase activity was quantified via the Promega Renilla Luciferase or Renilla-Glo™ Luciferase Assay Systems (Promega corporation. The same method was employed for replicon assays using subgenomic genotype 1a (H77) and 2a (JFH-1) replicon cell lines with a seeding cell density of 5000 cells/well for the 2a cell lines.
The compound concentration that reduced luciferase activity by 50% (EC50) was calculated using non-linear regression.
In general terms: Replicon systems follow genome replication, usually without infectious particles.

Data set [2] in a line: Aqueous solubility (laser nephelometry). In kind it is physicochemical. The conditions noted are these: for solubility at 30 min: aqueous assay buffer pH 6.5 with 1% DMSO, aqueous buffer, kinetic from dmso stock, pH 6.5, 1% DMSO, 30 minute incubation at 25° C. On the procedure: Test compounds prepared in DMSO were screened in duplicate over a range of concentrations (1.6-100 ug/mL) in different aqueous media (for example a pH6.5 buffers which are relevant to the stomach and upper regions of the small intestine and therefore important when predicting the amount of drug likely to be in solution following oral administration). Test compounds were serially diluted in 100% DMSO ranging from 10-0.16 mg/mL. These titrated DMSO stocks were then further diluted 1:100 with assay buffer and added to test plates (UV Star Griener 384 well plates), maintaining the DMSO concentration at 1%.

[3] abbreviates: read-out: solubility ranges at pH 6.5.

T1 sequence (P26663 2420-2989, stated change not applied): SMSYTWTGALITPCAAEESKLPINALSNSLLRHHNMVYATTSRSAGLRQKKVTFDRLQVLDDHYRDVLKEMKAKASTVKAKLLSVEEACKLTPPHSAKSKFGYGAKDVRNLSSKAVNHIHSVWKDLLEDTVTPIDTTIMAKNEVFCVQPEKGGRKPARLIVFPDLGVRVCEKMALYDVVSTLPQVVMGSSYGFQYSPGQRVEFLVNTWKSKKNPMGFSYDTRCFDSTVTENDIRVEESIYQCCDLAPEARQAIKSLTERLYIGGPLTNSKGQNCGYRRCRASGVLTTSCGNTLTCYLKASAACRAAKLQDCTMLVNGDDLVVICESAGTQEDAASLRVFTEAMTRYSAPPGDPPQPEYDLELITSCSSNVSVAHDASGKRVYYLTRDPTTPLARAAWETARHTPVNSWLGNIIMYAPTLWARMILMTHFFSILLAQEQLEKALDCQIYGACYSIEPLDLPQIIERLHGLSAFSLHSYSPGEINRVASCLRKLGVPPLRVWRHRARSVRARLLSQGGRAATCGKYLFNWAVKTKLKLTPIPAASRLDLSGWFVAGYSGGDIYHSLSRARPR

Usually IC50 stands for the concentration that gives 50% inhibition. Higher therefore signals weaker potency. As a reminder, the EC50 is the concentration needed to bring the measured effect to its halfway point. Higher therefore signals weaker potency. One may read the solubility as how much of the substance goes into solution per volume. Molecule `CNC(=O)c1c2cc(C3CC3)c(N(CC[C@@H]3CO[C@H]3C)S(C)(=O)=O)cc2nn1-c1ccc(Cl)cc1` (single isomer, unassigned) [Compound 32] displayed an IC50 against 1b (BK) NS5BΔ21 of 100 to 490 nM. Besides, the EC50 in data set [1] was less than 100 nM. The solubility at 30 min in data set [2] (setting [3]) is 25 to 50 µg/mL (≈ 48.4 to 96.7 µM).

In turn, `CNC(=O)c1c2cc(C3CC3)c(N(CC[C@H]3CO[C@@H]3C)S(C)(=O)=O)cc2nn1-c1ccc(Cl)cc1` (single isomer, unassigned) [Compound 33] gave an IC50 against 1b (BK) NS5BΔ21 of 100 to 490 nM. Further, the half-maximal effective concentration (EC50) in data set [1] is less than 100 nM. In addition, the solubility at 30 min in data set [2] (setting [3]) was in the range of 50 to 100 µg/mL (≈ 96.7 to 193 µM).

At 1b (BK) NS5BΔ21, `CNC(=O)c1c2cc(C3CC3)c(N(CCC3COC3)S(C)(=O)=O)cc2nn1-c1ccc(C)cc1` [Compound 3, 5-Cyclopropyl-N-methyl-2-(4-methylphenyl)-6-{(methylsulfonyl)[2-(oxetan-3-yl)ethyl]amino}-2H-indazole-3-carboxamide] had an IC50 of less than 100 nM. The EC50 in data set [1] was less than 100 nM. Further, the solubility at 30 min in data set [2] (setting [3]) was 12.5 to 25 µg/mL (≈ 25.9 to 51.8 µM).

Take `CNC(=O)c1c2cc(C3CC3)c(N(CCC3CN(C(C)=O)C3)S(C)(=O)=O)cc2nn1-c1ccc(Cl)cc1` [Compound 8, 6-{[2-(1-acetylazetidin-3-yl)ethyl](methylsulfonyl)amino}-2-(4-chlorophenyl)-5-cyclopropyl-N-methyl-2H-indazole-3-carboxamide]: the concentration for half-maximal inhibition (IC50) against 1b (BK) NS5BΔ21 lay within 100 to 490 nM. Moreover, the EC50 in data set [1] was less than 100 nM. In data set [2] (setting [3]), the solubility at 30 min was 25 to 50 µg/mL (≈ 45.9 to 91.9 µM).

Take `CNC(=O)c1c2cc(C3CC3)c(N(CC3COC3)S(C)(=O)=O)cc2nn1-c1ccc(Cl)cc1` [Compound 14, 2-(4-chlorophenyl)-5-cyclopropyl-N-methyl-6-[(methylsulfonyl)(oxetan-3-ylmethyl)amino]-2H-indazole-3-carboxamide]: the IC50 on 1b (BK) NS5BΔ21 is 100 to 490 nM. Also, the EC50 in data set [1] was less than 100 nM. In data set [2] (read-out: Solubility at pH 6.5), the solubility at 30 min lay within 25 to 50 µg/mL (≈ 51.1 to 102 µM). Also, the “solubility at pH 6.5 (in words)” value in data set [2] (pH 6.5, good solubility when the value is >25 ug/mL) is reported as “good solubility”.

Molecule `CNC(=O)c1c2cc(C3CC3)c(N(CCC3OCC3C)S(C)(=O)=O)cc2nn1-c1ccc(Cl)cc1` (centres unmarked) [Compound 17, 3,5-anhydro-1-{[2-(4-chlorophenyl)-5-cyclopropyl-3-(methylcarbamoyl)-2H-indazol-6-yl](methylsulfonyl)amino}-1,2,4-trideoxy-4-methylpentitol] came in with an IC50 on 1b (BK) NS5BΔ21 of 100 to 490 nM. The EC50 in data set [1] lay in the range of 100 to 490 nM. In data set [2] (setting [3]), the solubility at 30 min lay within 50 to 100 µg/mL (≈ 96.7 to 193 µM).

The molecule `CNC(=O)c1c2cc(C3CC3)c(N(CC(F)C3COC3)S(C)(=O)=O)cc2nn1-c1ccc(Cl)cc1` (centres unmarked) [Compound 18, 2-(4-chlorophenyl)-5-cyclopropyl-6-{[2-fluoro-2-(oxetan-3-yl)ethyl](methylsulfonyl)amino}-N-methyl-2H-indazole-3-carboxamide] registered a 50% inhibitory concentration (IC50) against 1b (BK) NS5BΔ21 of less than 100 nM. The molecule also yielded an EC50 in data set [1] of 100 to 490 nM. In data set [2] (setting [3]), the solubility at 30 min was 50 to 100 µg/mL (≈ 96 to 192 µM).

Molecule `CNC(=O)c1c2cc(C3CC3)c(N(CCC3(F)COC3)S(C)(=O)=O)cc2nn1-c1ccc(Cl)cc1` [Compound 26, 2-(4-chlorophenyl)-5-cyclopropyl-6-[2-(3-fluorooxetan-3-yl)ethyl-methylsulfonyl-amino]-N-methyl-indazole-3-carboxamide] gave an IC50 on 1b (BK) NS5BΔ21 of less than 100 nM. The molecule also yielded a concentration giving a half-maximal response (EC50) in data set [1] of less than 100 nM. The solubility at 30 min in data set [2] (setting [3]) was in the range of 25 to 50 µg/mL (≈ 48 to 96 µM).

With `CNC(=O)c1c2cc(C3CC3)c(N(CCC3(OC)CNC3)S(C)(=O)=O)cc2nn1-c1ccc(Cl)cc1` [Compound 29, 2-(4-chlorophenyl)-5-cyclopropyl-6-[2-(3-methoxyazetidin-3-yl)ethyl-methylsulfonyl-amino]-N-methyl-indazole-3-carboxamide], on 1b (BK) NS5BΔ21, the IC50 was in the range of 1000 to 10000 nM. In addition, the EC50 in data set [1] is 1000 to 10000 nM. For the same molecule, in data set [2] (setting [3]), the solubility at 30 min lay in the range of 12.5 to 25 µg/mL (≈ 23.5 to 47 µM).

The molecule `CNC(=O)c1c2cc(C3CC3)c(N(CCC3(OC)CN(C(C)=O)C3)S(C)(=O)=O)cc2nn1-c1ccc(Cl)cc1` [Compound 30, 6-[2-(1-acetyl-3-methoxy-azetidin-3-yl)ethyl-methylsulfonyl-amino]-2-(4-chlorophenyl)-5-cyclopropyl-N-methyl-indazole-3-carboxamide] had an IC50 on 1b (BK) NS5BΔ21 of 500 to 990 nM. The same molecule gave a concentration for a half-maximal effect (EC50) in data set [1] of 500 to 990 nM. Moreover, in data set [2] (setting [3]), the solubility at 30 min is 50 to 100 µg/mL (≈ 87.1 to 174 µM).

For `CNC(=O)c1c2cc(C3CC3)c(N(CCC3(CNC(=O)OC(C)(C)C)COC3)S(C)(=O)=O)cc2nn1-c1ccc(C)cn1` [Compound 35, tert-butyl N-[[3-[2-[[5-cyclopropyl-3-(methylcarbamoyl)-2-(5-methyl-2-pyridyl)indazol-6-yl]-methylsulfonyl-amino]ethyl]oxetan-3-yl]methyl]carbamate], in data set [1], the 50% effective concentration (EC50) lay within 1000 to 10000 nM. The solubility at 30 min in data set [2] (setting [3]) was 12.5 to 25 µg/mL (≈ 20.4 to 40.8 µM).

As for `CNC(=O)c1c2cc(C3CC3)c(N(CCC3(OC)COC3)S(C)(=O)=O)cc2nn1-c1ccc(Cl)cc1` [Compound 36, 2-(4-chlorophenyl)-5-cyclopropyl-6-[2-(3-methoxyoxetan-3-yl)ethyl-methylsulfonyl-amino]-N-methyl-indazole-3-carboxamide], the EC50 in data set [1] was in the range of 100 to 490 nM. In data set [2] (setting [3]), the solubility at 30 min fell in the range of 50 to 100 µg/mL (≈ 93.8 to 188 µM).

The values above are taken from patent US9120775B2, “Viral polymerase inhibitors” (Biota Scientific Management Pty Ltd, priority 2012, dated 2015).
